Experimental data: US20110312941A1, “1,4-DISUBSTITUTED PIPERIDINES AS VASOPRESSIN RECEPTOR VIA ANTAGONISTS” (VANTIA LIMITED, priority 2009, published 2011)

How the values were obtained:
[1] = molecular target: T1, cloned human V1a receptor (Homo sapiens, UniProt P37288); assay: in vitro functional calcium mobilisation assay (FLIPR), antagonist activity, 1321N1 cells, 250 pM AVP; type: cell-based; conditions: functional pKi derived from pIC50 (Equation 1), FLIPR Ca2+ mobilisation, 1321N1 cells expressing cloned human V1a receptor; for Ki: read-out: Mean fpKi (Human V1a) (converted)
T1 construct: host or cells: human brain astrocytoma 1321N1 cells
Method in brief: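 Antagonism measured as inhibition of calcium mobilisation induced by 250 pM AVP, with increasing compound concentrations, in 1321N1 astrocytoma cells stably expressing the receptor. pIC50 from 4-parameter logistic fit, converted to functional pKi using agonist concentration and agonist EC50.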

dysmenorrhoea = conditions: clinical study, compared to patients taking placebo; cited from earlier work

T1 sequence (P37288 whole entry): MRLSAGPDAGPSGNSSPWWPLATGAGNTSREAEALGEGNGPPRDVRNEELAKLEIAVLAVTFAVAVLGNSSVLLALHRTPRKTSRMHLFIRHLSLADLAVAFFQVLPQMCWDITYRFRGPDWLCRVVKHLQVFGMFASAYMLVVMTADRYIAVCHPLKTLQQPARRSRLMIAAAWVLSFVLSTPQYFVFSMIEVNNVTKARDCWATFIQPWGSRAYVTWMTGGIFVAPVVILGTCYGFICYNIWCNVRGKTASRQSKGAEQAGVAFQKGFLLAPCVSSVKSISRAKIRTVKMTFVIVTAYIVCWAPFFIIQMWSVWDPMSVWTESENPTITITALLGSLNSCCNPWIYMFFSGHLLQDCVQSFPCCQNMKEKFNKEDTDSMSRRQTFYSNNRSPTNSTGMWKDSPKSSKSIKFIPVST

## NCc1ccccc1N1CCC(C(=O)N2Cc3cccn3Cc3ccccc32)CC1 [Example 177, [1-(2-Aminomethyl-phenyl)-piperidin-4-yl]-(5H,11H-benzo[e]pyrrolo[1,2-a][1,4]diazepin-10-yl)-methanone]
[1]
  Ki: 28.8 nM

## NCc1ccc(N2CCC(C(=O)N3Cc4cccn4Cc4ccccc43)CC2)cc1 [Example 178]
[1]
  Ki: 97.7 nM

## COc1ccc(S(=O)(=O)N2c3ccc(Cl)cc3[C@](O)(c3ccccc3Cl)[C@@H]2C(=O)N2CCC[C@H]2C(N)=O)cc1OC [SR49059]
dysmenorrhoea
  amount of additional pain-killer taken: dose-related decrease in the amount of additional pain-killer taken
  pain: dose-related decrease in pain

## (5H,11H-Benzo[e]pyrrolo[1,2-a][1,4]diazepin-10-yl)-[1-(2-nitro-phenyl)-piperidin-4-yl]-methanone [Example 172]
[1]
  Mean fpKi (Human V1a): 7.35
